# Measured values: US10526291B2, “Potent dual BRD4-kinase inhibitors as cancer therapeutics” (H. Lee Moffitt Cancer Center and Research Institute, Inc., priority 2014, dated 2020)
# Values joined by “and” are separate entries in the source; they are usually repeats but may differ in a detail not shown here. Equal values may be shown once.
# Assays:
# BRD4-1 = target: T1, BRD4-1 (Homo sapiens, UniProt O60885); assay: BRD4-1 IC50; format: binding
# T1 construct: BRD4-1; purchased
# BRDT-1 = target: T2, BRDT-1 (Homo sapiens, UniProt Q58F21); assay: BRDT-1 IC50; format: binding
# T2 construct: BRDT-1; purchased
# BRD4 [1] = target: T3, BRD4 (Homo sapiens, UniProt O60885); assay: Differential Scanning Fluorimetry (DSF), stability of BRD4 upon ligand binding; settings: for IC50: estimated
# Protocol: (§1) DSF=Differential Scanning Fluorimetry; provides a measure of the increased stability of BRD4 upon ligand binding The DSF experiment was run at 100 μM protein, 4 μM compound and 2% DMSO.
# UKE-1 = UKE-1 cell IC50; format: cell-based; settings: UKE1
# NCI-H2052 = NCI-H2052 cell IC50; format: cell-based; settings: Homo sapiens
# MV4-11 AML cells = assay: MV-4-11 cell IC50 (antiproliferative activity); format: cell-based; settings: Homo sapiens
# Protocol: Cellular activity of promising compounds is assessed using MM.1S and MV4-11 AML cells using c-Myc levels as biomarker (6-12 hr treatment) and antiproliferative activity (48-72 hr treatment) as described (Ciceri et al., Dual kinase-bromodomain inhibitors for rationally designed polypharmacology. Nat Chem Biol 2014).
# MM.1S cells = assay: MM.1S cell survival, MTT assay; format: cell-based; settings: Homo sapiens, MM1.S, 72 h, 72 hours compound exposure
# HEK293 = HEK293 cell IC50; format: cell-based; settings: Homo sapiens
# c-Myc in MM.1S cells = settings: literature; cited from earlier work
# SAOS-2 = SAOS-2 cell IC50; format: cell-based; settings: Homo sapiens
# [2] = Precipitation in DSF buffer; format: physicochemical
# Protocol: as §1
# BRD2 = target: T4, BRD2 (Homo sapiens, UniProt P25440); assay: BRD2 IC50 (RB, commercial BRD panel); format: binding
# T4 construct: purchased
# T4 sequence (P25440 whole entry): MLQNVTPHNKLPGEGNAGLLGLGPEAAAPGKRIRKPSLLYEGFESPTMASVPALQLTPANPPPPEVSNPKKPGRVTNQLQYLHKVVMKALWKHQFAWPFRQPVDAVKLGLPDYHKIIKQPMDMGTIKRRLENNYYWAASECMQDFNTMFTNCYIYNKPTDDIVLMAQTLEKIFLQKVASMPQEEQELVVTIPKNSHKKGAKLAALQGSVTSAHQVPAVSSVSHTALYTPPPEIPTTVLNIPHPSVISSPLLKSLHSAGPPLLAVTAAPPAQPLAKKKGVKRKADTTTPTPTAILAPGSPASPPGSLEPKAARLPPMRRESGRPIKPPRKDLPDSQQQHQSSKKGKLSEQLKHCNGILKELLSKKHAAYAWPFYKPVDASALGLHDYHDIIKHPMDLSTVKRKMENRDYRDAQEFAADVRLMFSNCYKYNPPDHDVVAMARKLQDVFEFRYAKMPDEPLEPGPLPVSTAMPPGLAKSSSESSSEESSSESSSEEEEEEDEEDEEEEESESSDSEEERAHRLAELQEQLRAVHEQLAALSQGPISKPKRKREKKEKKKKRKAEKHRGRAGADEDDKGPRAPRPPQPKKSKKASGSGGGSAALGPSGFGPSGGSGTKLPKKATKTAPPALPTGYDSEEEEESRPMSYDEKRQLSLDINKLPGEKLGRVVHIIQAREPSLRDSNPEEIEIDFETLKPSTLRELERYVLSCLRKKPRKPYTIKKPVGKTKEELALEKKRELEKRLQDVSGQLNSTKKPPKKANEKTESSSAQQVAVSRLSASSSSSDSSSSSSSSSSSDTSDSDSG
# JAK1 = target: T5, JAK1 (Homo sapiens, UniProt P23458); assay: JAK1 IC50 (RB, commercial kinase panel); format: biochemical
# T5 construct: purchased
# T5 sequence (P23458 whole entry): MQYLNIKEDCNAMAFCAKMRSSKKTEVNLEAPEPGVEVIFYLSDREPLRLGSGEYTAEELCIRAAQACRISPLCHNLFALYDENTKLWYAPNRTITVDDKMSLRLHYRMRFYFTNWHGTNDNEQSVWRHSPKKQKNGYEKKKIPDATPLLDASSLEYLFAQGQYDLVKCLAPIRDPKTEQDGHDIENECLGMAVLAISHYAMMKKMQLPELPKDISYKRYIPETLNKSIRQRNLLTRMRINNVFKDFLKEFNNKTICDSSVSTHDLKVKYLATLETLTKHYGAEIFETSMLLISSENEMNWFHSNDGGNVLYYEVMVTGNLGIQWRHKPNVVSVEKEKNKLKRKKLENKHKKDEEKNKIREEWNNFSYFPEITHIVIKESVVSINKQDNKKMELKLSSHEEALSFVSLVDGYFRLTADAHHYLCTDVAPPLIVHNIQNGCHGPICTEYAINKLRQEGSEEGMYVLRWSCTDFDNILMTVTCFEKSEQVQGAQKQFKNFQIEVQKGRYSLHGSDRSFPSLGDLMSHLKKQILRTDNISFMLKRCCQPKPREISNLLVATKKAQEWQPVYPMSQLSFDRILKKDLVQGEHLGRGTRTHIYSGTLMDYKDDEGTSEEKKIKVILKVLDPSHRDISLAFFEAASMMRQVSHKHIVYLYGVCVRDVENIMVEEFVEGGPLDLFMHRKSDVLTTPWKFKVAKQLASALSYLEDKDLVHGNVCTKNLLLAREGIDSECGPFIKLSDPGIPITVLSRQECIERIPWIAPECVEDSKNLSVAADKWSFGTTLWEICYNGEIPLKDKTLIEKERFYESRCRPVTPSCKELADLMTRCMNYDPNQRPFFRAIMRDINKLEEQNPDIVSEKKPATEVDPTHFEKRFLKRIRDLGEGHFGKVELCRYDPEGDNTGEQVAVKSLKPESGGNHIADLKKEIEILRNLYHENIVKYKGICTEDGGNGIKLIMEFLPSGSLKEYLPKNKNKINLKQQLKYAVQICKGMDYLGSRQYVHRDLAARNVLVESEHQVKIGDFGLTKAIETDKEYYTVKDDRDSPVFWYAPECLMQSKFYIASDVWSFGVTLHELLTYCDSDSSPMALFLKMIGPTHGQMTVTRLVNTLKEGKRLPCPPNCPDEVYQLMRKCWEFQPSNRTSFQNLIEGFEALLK
# JAK2 = target: T6, JAK2 (Homo sapiens, UniProt O60674); assay: JAK2 IC50 (RB, commercial kinase panel); format: biochemical
# T6 construct: purchased
# T6 sequence (O60674 whole entry): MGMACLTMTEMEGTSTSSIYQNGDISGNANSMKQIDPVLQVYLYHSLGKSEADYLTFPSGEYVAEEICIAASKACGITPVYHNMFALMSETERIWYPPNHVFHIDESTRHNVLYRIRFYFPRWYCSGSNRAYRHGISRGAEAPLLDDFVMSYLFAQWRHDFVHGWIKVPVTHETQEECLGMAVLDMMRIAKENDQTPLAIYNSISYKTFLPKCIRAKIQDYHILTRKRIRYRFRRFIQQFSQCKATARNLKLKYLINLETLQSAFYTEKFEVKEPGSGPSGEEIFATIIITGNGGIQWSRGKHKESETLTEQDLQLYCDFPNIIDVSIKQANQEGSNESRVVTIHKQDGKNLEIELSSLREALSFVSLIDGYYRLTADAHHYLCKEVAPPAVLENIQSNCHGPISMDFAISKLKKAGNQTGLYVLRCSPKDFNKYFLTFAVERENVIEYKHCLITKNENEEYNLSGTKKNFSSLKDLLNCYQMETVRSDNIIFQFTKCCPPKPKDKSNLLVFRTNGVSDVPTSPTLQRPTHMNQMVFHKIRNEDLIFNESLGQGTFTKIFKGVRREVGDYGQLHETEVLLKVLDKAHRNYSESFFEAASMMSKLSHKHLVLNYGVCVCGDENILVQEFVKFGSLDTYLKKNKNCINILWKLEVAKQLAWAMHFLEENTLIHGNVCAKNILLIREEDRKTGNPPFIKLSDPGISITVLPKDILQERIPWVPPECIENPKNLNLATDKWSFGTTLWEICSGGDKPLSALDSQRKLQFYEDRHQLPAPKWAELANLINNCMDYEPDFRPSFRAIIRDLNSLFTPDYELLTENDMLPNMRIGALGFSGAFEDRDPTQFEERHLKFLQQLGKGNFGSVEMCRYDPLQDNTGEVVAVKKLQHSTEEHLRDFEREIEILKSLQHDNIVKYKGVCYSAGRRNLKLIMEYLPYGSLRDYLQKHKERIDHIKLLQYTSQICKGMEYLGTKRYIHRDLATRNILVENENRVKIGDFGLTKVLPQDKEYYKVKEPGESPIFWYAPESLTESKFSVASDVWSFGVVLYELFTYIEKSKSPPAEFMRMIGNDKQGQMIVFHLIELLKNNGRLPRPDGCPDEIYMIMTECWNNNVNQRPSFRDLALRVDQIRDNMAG
# BRD4 [3] = target: T3, BRD4; assay: BRD4 IC50 (RB, commercial BRD panel); format: binding
# JAK3 = target: T7, JAK3 (Homo sapiens, UniProt P52333); assay: JAK3 IC50 (RB, commercial kinase panel); format: biochemical
# T7 construct: purchased
# T7 sequence (P52333 1-1124): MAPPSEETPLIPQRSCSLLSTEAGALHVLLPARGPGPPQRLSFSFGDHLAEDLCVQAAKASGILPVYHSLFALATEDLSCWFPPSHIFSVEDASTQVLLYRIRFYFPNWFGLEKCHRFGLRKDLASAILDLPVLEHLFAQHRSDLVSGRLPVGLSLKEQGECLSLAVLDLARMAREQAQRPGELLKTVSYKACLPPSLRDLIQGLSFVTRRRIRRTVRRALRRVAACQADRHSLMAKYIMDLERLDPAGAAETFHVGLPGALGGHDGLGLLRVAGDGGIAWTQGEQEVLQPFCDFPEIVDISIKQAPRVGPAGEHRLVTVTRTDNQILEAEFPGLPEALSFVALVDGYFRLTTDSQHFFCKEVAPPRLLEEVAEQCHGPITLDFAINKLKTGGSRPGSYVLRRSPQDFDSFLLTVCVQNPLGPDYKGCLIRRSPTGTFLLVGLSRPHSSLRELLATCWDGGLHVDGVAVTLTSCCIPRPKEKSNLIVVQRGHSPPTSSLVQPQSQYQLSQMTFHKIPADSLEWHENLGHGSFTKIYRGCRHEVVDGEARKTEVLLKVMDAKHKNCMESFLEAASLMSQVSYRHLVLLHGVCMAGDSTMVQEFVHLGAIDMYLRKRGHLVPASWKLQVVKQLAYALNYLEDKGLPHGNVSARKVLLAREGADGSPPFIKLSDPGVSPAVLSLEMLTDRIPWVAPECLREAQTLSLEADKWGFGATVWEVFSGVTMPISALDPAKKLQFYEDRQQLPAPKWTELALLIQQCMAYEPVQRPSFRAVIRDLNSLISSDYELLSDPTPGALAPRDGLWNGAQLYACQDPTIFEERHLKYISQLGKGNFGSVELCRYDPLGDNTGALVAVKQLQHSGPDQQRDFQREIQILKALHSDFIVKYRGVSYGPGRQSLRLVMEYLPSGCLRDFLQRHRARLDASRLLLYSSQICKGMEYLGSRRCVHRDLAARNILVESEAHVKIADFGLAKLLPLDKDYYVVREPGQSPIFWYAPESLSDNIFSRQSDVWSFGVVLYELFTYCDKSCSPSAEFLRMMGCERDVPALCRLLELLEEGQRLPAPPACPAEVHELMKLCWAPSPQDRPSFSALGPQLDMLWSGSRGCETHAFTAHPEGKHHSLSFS
# BRD3 = target: T8, BRD3 (Homo sapiens, UniProt Q15059); assay: BRD3 IC50 (RB, commercial BRD panel); format: binding
# T8 construct: purchased
# T8 sequence (Q15059 whole entry): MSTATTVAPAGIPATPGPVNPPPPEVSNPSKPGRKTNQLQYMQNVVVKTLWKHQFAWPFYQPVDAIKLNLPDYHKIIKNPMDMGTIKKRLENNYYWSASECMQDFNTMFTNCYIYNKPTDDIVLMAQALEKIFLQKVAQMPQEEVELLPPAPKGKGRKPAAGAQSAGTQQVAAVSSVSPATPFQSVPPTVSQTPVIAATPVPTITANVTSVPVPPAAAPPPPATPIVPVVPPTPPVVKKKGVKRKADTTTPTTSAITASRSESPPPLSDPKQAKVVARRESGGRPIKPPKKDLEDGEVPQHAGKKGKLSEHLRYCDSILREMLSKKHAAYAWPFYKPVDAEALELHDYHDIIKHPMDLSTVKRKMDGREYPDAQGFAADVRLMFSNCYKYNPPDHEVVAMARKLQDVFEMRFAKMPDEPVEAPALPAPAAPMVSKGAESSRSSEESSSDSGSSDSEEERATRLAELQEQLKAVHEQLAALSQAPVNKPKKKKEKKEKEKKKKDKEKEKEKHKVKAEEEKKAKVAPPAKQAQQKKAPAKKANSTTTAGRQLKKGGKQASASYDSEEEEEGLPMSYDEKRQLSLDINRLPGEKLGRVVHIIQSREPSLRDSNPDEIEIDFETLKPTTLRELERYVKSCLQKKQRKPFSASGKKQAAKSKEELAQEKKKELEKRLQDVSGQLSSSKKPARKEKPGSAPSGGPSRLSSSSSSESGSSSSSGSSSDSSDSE
# BRDT = target: T9, BRDT (Homo sapiens, UniProt Q58F21); assay: BRDT IC50 (RB, commercial BRD panel); format: binding
# T9 construct: purchased
# [4] = 100 μM protein, 4 μM compound and 2% DMSO
ΔTm at 4 µM (BRD4 [1]; [4]),IC50 (BRD4 [1]),Compound,IC50 (MM.1S cells),IC50 (HEK293),further results
7.3 ± 0.099 °C,0.079 µM,Cc1cnc(Nc2ccc(N3CCN(C)CC3)cc2)nc1Nc1cccc(S(=O)(=O)NC2CC2)c1,1.2 µM,1.2 µM,
6.9 ± 0.038 °C,0.11 µM,CN1CCN(c2ccc(Nc3nc4c(c(Nc5cccc(NS(=O)(=O)C(C)(C)C)c5)n3)CCCC4)cc2)CC1,1.7 µM,,IC50 (SAOS-2): 2.5 µM
5.22 ± 0.065 °C,0.835 µM,CN1CCN(c2ccc(Nc3ncc(Cl)c(Nc4ccc(Cl)c(NS(=O)(=O)C(C)(C)C)c4)n3)cc2F)CC1,0.11 µM,,Precipitation in DSF buffer [2]: Precipitation observed in DSF buffer
5.6 ± 0.082 °C,0.29 µM,COc1cc(Nc2nc(Nc3ccc(N4CCN(C)CC4)cc3)ncc2C)ccc1Cl,0.42 µM,0.38 µM,IC50 (BRD2): 2.8 µM; IC50 (JAK1): 0.00183 µM; IC50 (JAK2): 0.00069 µM; IC50 (BRD4 [3]; read-out: BRD4 IC50): 0.617 µM; IC50 (BRD4 [3]; read-out: BRD4 IC50 (RB)): 0.617 µM; IC50 (JAK3): 0.00906 µM; IC50 (BRD3): 1.14 µM; IC50 (BRDT): 1.4 µM
6.4 ± 0.15 °C,0.16 µM,CN1CCN(c2ccc(Nc3ncc(Cl)c(Nc4cccc(S(=O)(=O)NC5CC5)c4)n3)cc2)CC1,0.88 µM,1.8 µM,

# The next lines start with the molecule.
Compound,ΔTm at 4 µM (BRD4 [1]; [4]),IC50 (BRD4 [1]),IC50 (MM.1S cells),IC50 (HEK293),further results
Cc1cnc(Nc2ccc(C(=O)NC3CCN(C)CC3)c(F)c2)nc1Nc1ccc(Cl)c(NS(=O)(=O)C(C)(C)C)c1,12.5 ± 0.165 °C,0.0013 µM,,,IC50 (BRD4-1): 0.01 µM; IC50 (BRDT-1): 0.023 µM; IC50 (UKE-1): 0.22 µM; IC50 (NCI-H2052): > 10 µM; IC50 (MV4-11 AML cells): 0.038 µM
Cc1cnc(Nc2ccc(OCCN3CCCC3)cc2)nc1Nc1cccc(S(=O)(=O)NC(C)(C)C)c1 [TG101348],,,,,downregulation of c-Myc (c-Myc in MM.1S cells): strong downregulation of c-Myc
CC[C@@H]1C(=O)N(C)c2cnc(Nc3ccc(C(=O)NC4CCN(C)CC4)cc3OC)nc2N1C1CCCC1 [BI2536],,,,,downregulation of c-Myc (c-Myc in MM.1S cells): strong downregulation of c-Myc
COc1cc(Nc2nc(Nc3ccc(N4CCN(C)CC4)cc3)nc(C)c2C)cc(OC)c1OC,5.9 ± 0.14 °C,0.23 µM,5.6 µM,1.4 µM,
Cc1cnc(Nc2ccc(C3CCN(C)CC3)cc2)nc1Nc1ccc(Cl)c(NS(=O)(=O)C(C)(C)C)c1,10 ± 0.11 °C,0.0074 µM and 0.0099 µM,,,DSF ΔTm (° C.) (BRD4 [1]; [4]): 10 ± 0.11 10 ± 0.11 °C; IC50 (UKE-1): 0.47 µM; IC50 (MV4-11 AML cells): 0.098 µM
